Columns and labels:
[1] = molecular target: 5-HT2A receptors (Rattus norvegicus, UniProt P14842); test: in-vitro affinity to 5-HT2A receptors, displacement of [3H]ketanserine (Example A1); format: binding; conditions: read-out: HT2A IC50
Excerpt: The 5-HT2A receptors are exposed both to [^3H]ketanserine (a substance which is known for its affinity to the receptor) and also to the test compound. The decrease in the affinity of [^3H]ketanserine to the receptor is an indication of the affinity of the test substance to the 5-HT2A receptor.

[2] = molecular target: T1, 5 HT2C receptor (Homo sapiens, UniProt P28335); test: affinity to the 5 HT2C receptor; format: binding
T1 sequence (P28335 33-458): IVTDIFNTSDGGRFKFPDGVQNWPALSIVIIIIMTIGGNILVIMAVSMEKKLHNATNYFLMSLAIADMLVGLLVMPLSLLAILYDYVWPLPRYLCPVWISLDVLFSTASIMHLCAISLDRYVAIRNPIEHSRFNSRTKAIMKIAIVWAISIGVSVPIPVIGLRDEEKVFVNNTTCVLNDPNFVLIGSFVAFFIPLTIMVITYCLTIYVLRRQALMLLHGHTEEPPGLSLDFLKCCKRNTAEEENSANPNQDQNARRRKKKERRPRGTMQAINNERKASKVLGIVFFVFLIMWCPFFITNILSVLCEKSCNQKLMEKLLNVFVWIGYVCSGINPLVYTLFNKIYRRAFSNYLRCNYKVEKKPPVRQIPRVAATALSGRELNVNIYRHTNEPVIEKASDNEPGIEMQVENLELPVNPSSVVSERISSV

5-HT2A receptors, sequence (P14842 whole entry): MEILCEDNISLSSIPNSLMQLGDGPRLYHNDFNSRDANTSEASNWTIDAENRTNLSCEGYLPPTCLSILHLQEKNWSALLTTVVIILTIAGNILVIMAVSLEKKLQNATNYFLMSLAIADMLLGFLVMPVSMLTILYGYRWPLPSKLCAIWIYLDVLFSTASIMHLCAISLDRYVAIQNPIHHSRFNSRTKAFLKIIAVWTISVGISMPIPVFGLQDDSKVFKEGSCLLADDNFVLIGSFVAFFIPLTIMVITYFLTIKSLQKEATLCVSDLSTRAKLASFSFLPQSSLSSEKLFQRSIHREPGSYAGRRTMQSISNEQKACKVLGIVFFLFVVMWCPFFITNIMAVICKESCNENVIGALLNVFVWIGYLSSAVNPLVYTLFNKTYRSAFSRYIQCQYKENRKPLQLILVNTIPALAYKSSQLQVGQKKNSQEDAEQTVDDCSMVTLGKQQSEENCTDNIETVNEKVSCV

OC1CCN(Cc2cnn(-c3ccc(-c4ccc(F)cc4)cc3)c2-c2ccc(Cl)cc2)C1 (stereo not shown) [Example 1003, 1-[5-(4-Chlorophenyl)-1-(4′-fluoro-biphenyl-4-yl)-1H-pyrazol-4-ylmethyl]pyrrolidin-3-ol]
IC50 [1]: 0.17 µM | IC50 [2]: 1 µM

CN1CCN(Cc2cnn(-c3ccc(C(F)(F)F)cc3)c2-c2ccccc2F)CC1 [Example 990, 1-[5-(2-Fluorophenyl)-1-(4-trifluoro-methyl-phenyl)-1H-pyrazol-4-ylmethyl]-4-methyl-piperazine]
IC50 [1]: 0.133 µM | IC50 [2]: 0.49 µM

CN1CCN(Cc2cnn(-c3ccc(-c4ccc(F)cc4)cc3)c2-c2ccccc2Cl)CC1 [Example 965, 1-[5-(2-Chlorophenyl)-1-(4′-fluoro-biphenyl-4-yl)-1H-pyrazol-4-ylmethyl]-4-methylpiperazine]
IC50 [1]: 0.072 µM | IC50 [2]: 0.6 µM

CN1CCN(Cc2cnn(-c3ccc(-c4ccc5c(c4)OCCO5)cc3)c2-c2ccccc2F)CC1 [Example 901, 1-[1-[4-(2,3-Dihydrobenzo[1,4]dioxin-6-yl)-phenyl]-5-(2-fluorophenyl)-1H-pyrazol-4-yl-methyl]-4-methyl-piperazine]
IC50 [1]: 0.013 µM | IC50 [2]: 0.87 µM

CN1CCN(Cc2cnn(-c3ccc(C(F)(F)F)cn3)c2-c2ccccc2F)CC1 [Example 941, 1-[5-(2-Fluorophenyl)-1-(5-trifluoro-methylpyridin-2-yl)-1H-pyrazol-4-ylmethyl]-4-methyl-piperazine]
IC50 [1]: 0.039 µM | IC50 [2]: 1 µM

CCN(CC)Cc1cnn(-c2ccc(-c3ccc(F)cc3)cc2)c1-c1ccc(Cl)cc1 [Example 1016, [5-(4-Chlorophenyl)-1-(4′-fluoro-biphenyl-4-yl)-1H-pyrazol-4-ylmethyl]diethylamine]
IC50 [1]: 0.22 µM | IC50 [2]: 1 µM

COc1ccccc1-c1c(CN2CCN(C)CC2)cnn1-c1ccc(-c2ccsc2)cc1 [Example 1055, 1-[5-(2-Methoxyphenyl)-1-(4-thiophen-3-yl-phenyl)-1H-pyrazol-4-ylmethyl]-4-methyl-piperazine]
IC50 [1]: 0.46 µM | IC50 [2]: 0.3 µM

CN1CCN(Cc2cnn(-c3ccc(-c4ccc(F)cc4)cc3)c2-c2ccc(F)cc2)CC1 [Example 923, 1-[1-(4′-Fluorobiphenyl-4-yl)-5-(4-fluoro-phenyl)-1H-pyrazol-4-ylmethyl]-4-methylpiperazine]
IC50 [1]: 0.025 µM | IC50 [2]: 0.75 µM

CN1CCN(Cc2cnn(-c3ccc(-c4ccc(Cl)cc4)cc3)c2-c2ccccc2F)CC1 [Example 920, 1-[1-(4′-Chlorobiphenyl-4-yl)-5-(2-fluoro-phenyl)-1H-pyrazol-4-ylmethyl]-4-methyl-piperazine]
IC50 [1]: 0.023 µM | IC50 [2]: 0.33 µM

COc1cccc(-c2ccc(-n3ncc(CN4CCN(C)CC4)c3-c3ccccc3F)cc2)c1 [Example 930, 1-[5-(2-Fluorophenyl)-1-(3′-methoxy-biphenyl-4-yl)-1H-pyrazol-4-ylmethyl]-4-methyl-piperazine]
IC50 [1]: 0.029 µM | IC50 [2]: 0.69 µM

CN1CCN(Cc2cnn(-c3ccc(-c4ccccc4)cc3)c2-c2ccccn2)CC1 [Example 949, 1-(1-Biphenyl-4-yl-5-pyridin-2-yl-1H-pyrazol-4-ylmethyl)-4-methylpiperazine]
IC50 [1]: 0.05 µM | IC50 [2]: 1 µM

CN(C)CCN(C)Cc1cnn(-c2ccc(-c3ccccc3)cc2)c1-c1ccccc1F [Example 912, N-[1-Biphenyl-4-yl-5-(2-fluorophenyl)-1H-pyrazol-4-ylmethyl]-N,N′,N′-trimethylethane-1,2-diamine]
IC50 [1]: 0.02 µM | IC50 [2]: 0.92 µM

CC(C)N1CCN(Cc2cnn(-c3ccc(-c4ccc(F)cc4)cc3)c2-c2ccc(Cl)cc2)CC1 [Example 1054, 1-[5-(4-Chlorophenyl)-1-(4′-fluoro-biphenyl-4-yl)-1H-pyrazol-4-ylmethyl]-4-isopropylpiperazine]
IC50 [1]: 0.44 µM | IC50 [2]: 1 µM

Fc1ccccc1-c1c(CN2CCNCC2)cnn1-c1ccc(C(F)(F)F)cc1 [Example 944, 1-[5-(2-Fluorophenyl)-1-(4-trifluoro-methyl-phenyl)-1H-pyrazol-4-ylmethyl]piperazine]
IC50 [1]: 0.043 µM | IC50 [2]: 0.79 µM

Fc1ccccc1-c1c(CNc2ccon2)cnn1-c1ccc(-c2ccccc2)cc1 [Example 1022, [1-Biphenyl-4-yl-5-(2-fluorophenyl)-1H-pyrazol-4-ylmethyl]isoxazol-3-ylamine]
IC50 [1]: 0.24 µM | IC50 [2]: 1 µM

CN1CCN(Cc2cnn(-c3ccc(-n4cccc4)cc3)c2-c2ccccc2F)CC1 [Example 909, 1-[5-(2-Fluorophenyl)-1-(4-pyrrol-1-ylphenyl)-1H-pyrazol-4-ylmethyl]-4-methylpiperazine]
IC50 [1]: 0.017 µM | IC50 [2]: 0.21 µM

CC(=O)NC1CCN(Cc2cnn(-c3ccc(-c4ccccc4)cc3)c2-c2ccccc2F)C1 (stereo not shown) [Example 929, N-{1-[1-Biphenyl-4-yl-5-(2-fluoro-phenyl)-1H-pyrazol-4-ylmethyl]pyrrolidin-3-yl}acetamide]
IC50 [1]: 0.029 µM | IC50 [2]: 1 µM

COCCNCc1cnn(-c2ccc(-c3ccccc3)cc2)c1-c1ccccc1F [Example 905, [1-Biphenyl-4-yl-5-(2-fluorophenyl)-1H-pyrazol-4-ylmethyl]-(2-methoxyethyl)amine]
IC50 [1]: 0.016 µM | IC50 [2]: 1 µM

OCc1cnn(-c2ccc(-c3ccc(F)cc3)cc2)c1-c1ccc(Cl)cc1 [Example 933, [5-(4-Chlorophenyl)-1-(4′-fluoro-biphenyl-4-yl)-1H-pyrazol-4-yl]methanol]
IC50 [1]: 0.031 µM | IC50 [2]: 1 µM

CN1CCN(Cc2cnn(-c3ccc(-c4ccccc4)cc3)c2-c2ccccc2F)CC1 [Example 926, 1-[1-Biphenyl-4-yl-5-(2-fluoro-phenyl)-1H-pyrazol-4-ylmethyl]-4-methylpiperazine]
IC50 [1]: 0.0273 µM | IC50 [2]: 0.6 µM

CN1CCN(Cc2cnn(-c3ccc(-c4ccccc4)cn3)c2-c2ccccc2F)CC1 [Example 922, 1-[5-(2-Fluorophenyl)-1-(5-phenyl-pyridin-2-yl)-1H-pyrazol-4-ylmethyl]-4-methylpiperazine]
IC50 [1]: 0.024 µM | IC50 [2]: 0.66 µM

Cn1ccnc1CNCc1cnn(-c2ccc(-c3ccccc3)cc2)c1-c1ccccc1 [Example 942, (1-Biphenyl-4-yl-5-phenyl-1H-pyrazol-4-yl-methyl)-(1-methyl-1H-imidazol-2-ylmethyl)-amine]
IC50 [1]: 0.039 µM | IC50 [2]: 1 µM

CCN1CCN(Cc2cnn(-c3ccc(-c4ccc(F)cc4)cc3)c2-c2ccc(Cl)cc2)CC1 [Example 1037, 1-[5-(4-Chlorophenyl)-1-(4′-fluoro-biphenyl-4-yl)-1H-pyrazol-4-ylmethyl]-4-ethylpiperazine]
IC50 [1]: 0.31 µM | IC50 [2]: 1 µM

CN1CC2CC1CN2Cc1cnn(-c2ccc(-c3ccccc3)cc2)c1-c1ccccc1F (stereo not shown) [Example 977, 2-[1-Biphenyl-4-yl-5-(2-fluorophenyl)-1H-pyrazol-4-ylmethyl]-5-methyl-2,5-diazabicyclo-[2.2.1]heptane]
IC50 [1]: 0.094 µM | IC50 [2]: 0.68 µM

CN(C)CCN(C)Cc1cnn(-c2ccc(-c3ccc(F)cc3)cc2)c1-c1ccc(Cl)cc1 [Example 1024, N-[5-(4-Chlorophenyl)-1-(4′-fluoro-biphenyl-4-yl)-1H-pyrazol-4-ylmethyl]-N,N′,N′-trimethyl-ethane-1,2-diamine]
IC50 [1]: 0.24 µM | IC50 [2]: 1 µM

CC(C)c1ccc(-c2ccc(-n3ncc(CN4CCN(C)CC4)c3-c3ccccc3F)cc2)cc1 [Example 958, 1-[5-(2-Fluorophenyl)-1-(4′-isopropylbiphenyl-4-yl)-1H-pyrazol-4-ylmethyl]-4-methyl-piperazine]
IC50 [1]: 0.0581 µM | IC50 [2]: 0.83 µM

Cn1cccc1CNCc1cnn(-c2ccc(-c3ccccc3)cc2)c1-c1ccccc1 [Example 925, (1-Biphenyl-4-yl-5-phenyl-1H-pyrazol-4-yl-methyl)-(1-methyl-1H-pyrrol-2-ylmethyl)amine]
IC50 [1]: 0.026 µM | IC50 [2]: 0.52 µM

CN1CCN(Cc2cnn(-c3ccc(-c4ccc(F)cc4)cc3)c2-c2ccc(Cl)cc2)CC1 [Example 1057, 1-[5-(4-Chlorophenyl)-1-(4′-fluoro-biphenyl-4-yl)-1H-pyrazol-4-ylmethyl]-4-methylpiperazine]
IC50 [1]: 0.46 µM | IC50 [2]: 1 µM

Fc1ccc(-c2ccc(-n3ncc(CN4CCN(C5CCCC5)CC4)c3-c3ccccc3Cl)cc2)cc1 [Example 1027, 1-[5-(2-Chlorophenyl)-1-(4′-fluoro-biphenyl-4-yl)-1H-pyrazol-4-ylmethyl]-4-cyclopentylpiperazine]
IC50 [1]: 0.26 µM | IC50 [2]: 1 µM

CN(C)Cc1cnn(-c2ccc(C(F)(F)F)cn2)c1-c1ccccc1F [Example 937, [5-(2-Fluorophenyl)-1-(5-trifluoro-methylpyridin-2-yl)-1H-pyrazol-4-ylmethyl]dimethylamine]
IC50 [1]: 0.035 µM | IC50 [2]: 1 µM

CN1CCCN(Cc2cnn(-c3ccc(-c4ccccc4)cc3)c2-c2ccccc2F)CC1 [Example 893, 1-[1-Biphenyl-4-yl-5-(2-fluorophenyl)-1H-pyrazol-4-ylmethyl]-4-methyl-[1,4]diazepam]
IC50 [1]: 0.0064 µM | IC50 [2]: 0.23 µM

COc1ccc(-c2ccc(-n3ncc(CN4CCN(C)CC4)c3-c3ccccc3F)cc2)cc1 [Example 895, 1-[5-(2-Fluorophenyl)-1-(4′-methoxy-biphenyl-4-yl)-1H-pyrazol-4-ylmethyl]-4-methyl-piperazine]
IC50 [1]: 0.0075 µM | IC50 [2]: 1.15 µM

From patent US20060264419A1 (priority 2003, published 2006)
